PubChem BioAssay AID1918952 (Molecular Pharmacology Branch, DTP, NCI, 2023)

System: LG0703-F948-PDC complex spheroid viability
Assay: Anticancer human tumor LG0703-F948-PDC patient-derived lung adenocarcinoma cell line growth inhibition
Conditions: for IC50: curve of first compound; for viability, T/C: stronger effect = lower value; active = viability on the fitted dose curve at most 10% of control; inactive = the rest
How it was run: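 Complex spheroids of tumor cells with HUVEC and human MSCs, exposed to iadademstat combined with other agents. Each agent tested in half-log steps from near clinical Cmax (else 10 microM top), DMSO ≤0.25%.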

[1] = second compound 0.1 µM, first compound 0.00949 µM
[2] = second compound 0.1 µM, first compound 0.03 µM
[3] = second compound 0.1 µM, first compound 0.0949 µM
[4] = second compound 0.1 µM, first compound 0.3 µM
[5] = second compound 0.316 µM, first compound 0.00949 µM
[6] = second compound 0.316 µM, first compound 0.03 µM
[7] = second compound 0.316 µM, first compound 0.0949 µM
[8] = second compound 0.316 µM, first compound 0.3 µM
[9] = second compound 1 µM, first compound 0.00949 µM
[10] = second compound 1 µM, first compound 0.03 µM
[11] = second compound 1 µM, first compound 0.0949 µM
[12] = second compound 1 µM, first compound 0.3 µM
[13] = second compound 3.16 µM, first compound 0.00949 µM
[14] = second compound 3.16 µM, first compound 0.03 µM
[15] = second compound 3.16 µM, first compound 0.0949 µM
[16] = second compound 3.16 µM, first compound 0.3 µM
[17] = second compound 10 µM, first compound 0.00949 µM
[18] = second compound 10 µM, first compound 0.03 µM
[19] = second compound 10 µM, first compound 0.0949 µM
[20] = second compound 10 µM, first compound 0.3 µM
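Note: spheroids exposed to agents for seven days before readout.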
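Throughout, for viability, T/C: 100% = DMSO vehicle control wells as normalization base.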

COc1cc(C2c3cc4c(cc3C(OC3OC5COC(C)OC5C(O)C3O)C3COC(=O)C23)OCO4)cc(OC)c1O (stereo not given) + NC1CCC(NC2CC2c2ccccc2)CC1
inactive: viability, T/C [1] 99.9% | viability, T/C [2] 104% | viability, T/C [3] 94.8% | viability, T/C [4] 87.6% | viability, T/C (second compound 0.1 µM, first compound 0.949 µM) 72.2% | viability, T/C (second compound 0.1 µM, first compound 3 µM) 58.2% | viability, T/C [5] 106% | viability, T/C [6] 108% | viability, T/C [7] 90.7% | viability, T/C [8] 87.6% | viability, T/C (second compound 0.316 µM, first compound 0.949 µM) 77.8% | viability, T/C (second compound 0.316 µM, first compound 3 µM) 65% | viability, T/C [9] 113% | viability, T/C [10] 127% | viability, T/C [11] 108% | viability, T/C [12] 99.3% | viability, T/C (second compound 1 µM, first compound 0.949 µM) 91.4% | viability, T/C (second compound 1 µM, first compound 3 µM) 73.7% | viability, T/C [13] 120% | viability, T/C [14] 105% | viability, T/C [15] 112% | viability, T/C [16] 108% | viability, T/C (second compound 3.16 µM, first compound 0.949 µM) 98.5% | viability, T/C (second compound 3.16 µM, first compound 3 µM) 86.8% | viability, T/C [17] 104% | viability, T/C [18] 115% | viability, T/C [19] 118% | viability, T/C [20] 86.2% | viability, T/C (second compound 10 µM, first compound 0.949 µM) 97.5% | viability, T/C (second compound 10 µM, first compound 3 µM) 81.4%
> 3000 nM: IC50 (second compound 0.1 µM) | IC50 (second compound 0.316 µM) | IC50 (second compound 1 µM) | IC50 (second compound 3.16 µM) | IC50 (second compound 10 µM)

Nc1ccn(C2OC(CO)C(O)C2(F)F)c(=O)n1 (stereo not given) + NC1CCC(NC2CC2c2ccccc2)CC1
19.3 nM: IC50 (second compound 10 µM)
3.35 nM: IC50 (second compound 0.1 µM)
4.37 nM: IC50 (second compound 0.316 µM)
24.4 nM: IC50 (second compound 3.16 µM)
inactive: viability, T/C (second compound 0.1 µM, first compound 0.000949 µM) 68.9% | viability, T/C (second compound 0.1 µM, first compound 0.003 µM) 50.5% | viability, T/C [1] 41.8% | viability, T/C [2] 44% | viability, T/C [3] 39.1% | viability, T/C [4] 36.8% | viability, T/C (second compound 0.316 µM, first compound 0.000949 µM) 67.5% | viability, T/C (second compound 0.316 µM, first compound 0.003 µM) 52.3% | viability, T/C [5] 45.3% | viability, T/C [6] 41.1% | viability, T/C [7] 44.2% | viability, T/C [8] 38.6% | viability, T/C (second compound 1 µM, first compound 0.000949 µM) 74.6% | viability, T/C (second compound 1 µM, first compound 0.003 µM) 56.1% | viability, T/C [9] 55% | viability, T/C [10] 46.4% | viability, T/C [11] 48.1% | viability, T/C [12] 37.2% | viability, T/C (second compound 3.16 µM, first compound 0.000949 µM) 86.8% | viability, T/C (second compound 3.16 µM, first compound 0.003 µM) 65.8% | viability, T/C [13] 54.1% | viability, T/C [14] 51.5% | viability, T/C [15] 45.1% | viability, T/C [16] 43.6% | viability, T/C (second compound 10 µM, first compound 0.000949 µM) 83.1% | viability, T/C (second compound 10 µM, first compound 0.003 µM) 56.8% | viability, T/C [17] 56.8% | viability, T/C [18] 49% | viability, T/C [19] 51.1% | viability, T/C [20] 42.2%
15.2 nM: IC50 (second compound 1 µM)

Nc1ncn(C2CC(O)C(CO)O2)c(=O)n1 (stereo not given) + NC1CCC(NC2CC2c2ccccc2)CC1
inactive: viability, T/C (second compound 0.1 µM, first compound 0.00316 µM) 101% | viability, T/C (second compound 0.1 µM, first compound 0.01 µM) 102% | viability, T/C (second compound 0.1 µM, first compound 0.0316 µM) 98% | viability, T/C (second compound 0.1 µM, first compound 0.1 µM) 96.3% | viability, T/C (second compound 0.1 µM, first compound 0.316 µM) 95.4% | viability, T/C (second compound 0.1 µM, first compound 1 µM) 81.9% | viability, T/C (second compound 0.316 µM, first compound 0.00316 µM) 114% | viability, T/C (second compound 0.316 µM, first compound 0.01 µM) 118% | viability, T/C (second compound 0.316 µM, first compound 0.0316 µM) 110% | viability, T/C (second compound 0.316 µM, first compound 0.1 µM) 98.7% | viability, T/C (second compound 0.316 µM, first compound 0.316 µM) 102% | viability, T/C (second compound 0.316 µM, first compound 1 µM) 98.5% | viability, T/C (second compound 1 µM, first compound 0.00316 µM) 107% | viability, T/C (second compound 1 µM, first compound 0.01 µM) 126% | viability, T/C (second compound 1 µM, first compound 0.0316 µM) 130% | viability, T/C (second compound 1 µM, first compound 0.1 µM) 106% | viability, T/C (second compound 1 µM, first compound 0.316 µM) 97% | viability, T/C (second compound 1 µM, first compound 1 µM) 112% | viability, T/C (second compound 3.16 µM, first compound 0.00316 µM) 122% | viability, T/C (second compound 3.16 µM, first compound 0.01 µM) 121% | viability, T/C (second compound 3.16 µM, first compound 0.0316 µM) 117% | viability, T/C (second compound 3.16 µM, first compound 0.1 µM) 111% | viability, T/C (second compound 3.16 µM, first compound 0.316 µM) 131% | viability, T/C (second compound 3.16 µM, first compound 1 µM) 101% | viability, T/C (second compound 10 µM, first compound 0.00316 µM) 122% | viability, T/C (second compound 10 µM, first compound 0.01 µM) 141% | viability, T/C (second compound 10 µM, first compound 0.0316 µM) 111% | viability, T/C (second compound 10 µM, first compound 0.1 µM) 114% | viability, T/C (second compound 10 µM, first compound 0.316 µM) 113% | viability, T/C (second compound 10 µM, first compound 1 µM) 122%
> 1000 nM: IC50 (second compound 0.1 µM) | IC50 (second compound 0.316 µM) | IC50 (second compound 1 µM) | IC50 (second compound 3.16 µM) | IC50 (second compound 10 µM)
